Measurements published in the supplement of paper PMC11061612.

Tests used:
Assay in all cases: Bliss excess, mean over the matrix (fraction); higher = more synergy
COLO-679 (Melanoma) = tested on: COLO-679 (Melanoma)
How it was run: (§1)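 Cell lines in DMEM/F12 or RPMI with 10% FBS were plated in 1536-well plates, held 24 hours at 37°C, 5% CO2, then given two-drug dose matrices for 72 hours (DMSO typically 0.2%). Viability was read by CellTiter-Glo 2.0 luminescence and scaled as inhibition from 0 (vehicle wells) to 1 (blank wells). Combination Emax is the second-highest inhibition in the matrix; Bliss excess is observed combination effect minus expected EA + EB − EA·EB, EA and EB being single-agent effects.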

[1] = tested on: Ca-Ski (Cervical Carcinoma)
How it was run: as §1

[2] = tested on: DU-145 (Prostate Carcinoma)
How it was run: as §1

[3] = tested on: EFO-21 (Ovarian Carcinoma)
How it was run: as §1

[4] = tested on: EJM (Plasma Cell Myeloma)
How it was run: as §1

EW-1 (Ewing's Sarcoma) = tested on: EW-1 (Ewing's Sarcoma)
How it was run: as §1

[5] = tested on: HAL-01 (B-Lymphoblastic Leukemia)
How it was run: as §1

[6] = tested on: HCC1937 (Breast Carcinoma)
How it was run: as §1

[7] = tested on: KGN (Other Solid Carcinomas)
How it was run: as §1

[8] = tested on: KOPN-8 (B-Lymphoblastic Leukemia)
How it was run: as §1

[9] = tested on: LC-1-sq (Squamous Cell Lung Carcinoma)
How it was run: as §1

[10] = tested on: MDA-MB-453 (Breast Carcinoma)
How it was run: as §1

[11] = tested on: ME-180 (Cervical Carcinoma)
How it was run: as §1

[12] = tested on: MOG-G-UVW (Low Grade Glioma)
How it was run: as §1

[13] = tested on: NCI-H1092 (Small Cell Lung Carcinoma)
How it was run: as §1

[14] = tested on: OE33 (Esophageal Adenocarcinoma)
How it was run: as §1

[15] = tested on: SK-LU-1 (Lung Adenocarcinoma)
How it was run: as §1

SK-N-AS (Neuroblastoma) = tested on: SK-N-AS (Neuroblastoma)
How it was run: as §1

[16] = tested on: SNU-387 (Hepatocellular Carcinoma)
How it was run: as §1

[17] = tested on: SW982 (Other Solid Carcinomas)
How it was run: as §1

| SMILES | Bliss excess (COLO-679 (Melanoma)) | Bliss excess [1] | Bliss excess [2] | Bliss excess [3] | Bliss excess [4] | Bliss excess (EW-1 (Ewing's Sarcoma)) | Bliss excess [5] | Bliss excess [6] | Bliss excess [7] | Bliss excess [8] | Bliss excess [9] | Bliss excess [10] | Bliss excess [11] | Bliss excess [12] | Bliss excess [13] | Bliss excess [14] | Bliss excess [15] | Bliss excess (SK-N-AS (Neuroblastoma)) | Bliss excess [16] | Bliss excess [17] |
| --- | --- | --- | --- | --- | --- | --- | --- | --- | --- | --- | --- | --- | --- | --- | --- | --- | --- | --- | --- | --- |
| CN(C)CCCOc1ccc(-c2ccc3ncc4c(c3c2)n(C2CCOCC2)c(=O)n4C)cn1 [AZD0156] + O=C(c1cc(Cc2n[nH]c(=O)c3ccccc23)ccc1F)N1CCN(C(=O)C2CC2)CC1 [Olaparib] (first compound max 3 µM, partner max 3 µM) | -0.0013 | 0.063 | -0.0462 | -0.0149 | 0.0719 | 0.231 | 0.191 | 0.0316 | 0.156 | 0.31 | -0.0374 | -0.0266 | 0.0444 | 0.204 | 0.0028 | 0.0228 | -0.017 | -0.0959 | 0.0072 | 0.0903 |
| NC1(C(=O)N[C@@H](CCO)c2ccc(Cl)cc2)CCN(c2ncnc3[nH]ccc23)CC1 [Capivasertib] + CCN(CCO)CCCOc1ccc2c(Nc3cc(CC(=O)Nc4cccc(F)c4)[nH]n3)ncnc2c1 [AZD2811] (first compound max 10 µM, 7x7, partner max 1 µM) | -0.2 | 0.0121 | -0.0485 | -0.0156 | 0.0798 | 0.0388 | -0.0779 | 0.0005 | -0.0623 | -0.0632 | 0.0488 | 0.002 | -0.0096 | 0.0415 | -0.0137 | -0.0137 | -0.103 | 0.0008 | -0.0504 | 0.0184 |
| NC1(C(=O)N[C@@H](CCO)c2ccc(Cl)cc2)CCN(c2ncnc3[nH]ccc23)CC1 [Capivasertib] + C[C@@H]1COCCN1C2=NC(=NC(=C2)C3(CC3)[S@](=N)(=O)C)C4=C5C=CNC5=NC=C4 [AZD6738] (first compound max 10 µM, 7x7, partner max 10 µM) | -0.128 | 0.0076 | -0.0128 | -0.0322 | 0.0305 | 0.0229 | -0.0267 | -0.0142 | -0.0783 | -0.0253 | -0.0984 | -0.0798 | -0.066 | -0.0348 | -0.0055 | -0.0225 | -0.0162 | -0.0469 | -0.0613 | -0.0382 |
| CN(CCO)CC[C@H](CSc1ccccc1)Nc1ccc(S(=O)(=O)NC(=O)c2ccc(N3CCC([C@@H](O)c4ccccc4-c4ccc(Cl)cc4)CC3)cc2)cc1S(=O)(=O)C(F)(F)F [AZD4320] + CN(C)CCCOc1ccc(-c2ccc3ncc4c(c3c2)n(C2CCOCC2)c(=O)n4C)cn1 [AZD0156] (first compound max 1 µM, 7x7, partner max 1 µM) | -0.068 | -0.0173 | -0.0284 | -0.0579 | 0.0079 | 0.0527 | 0.024 | 0.0007 | -0.0231 | -0.052 | 0.0065 | -0.0449 | -0.0339 | -0.0476 | -0.0078 | -0.0312 | -0.0759 | -0.0331 | -0.0208 | -0.0487 |
| NC1(C(=O)N[C@@H](CCO)c2ccc(Cl)cc2)CCN(c2ncnc3[nH]ccc23)CC1 [Capivasertib] + COc1nnc2ccc(N3CCC(c4ccc(OCCN5CCN(C)C(=O)[C@H]5C)cc4)CC3)nn12 [AZD5153] (first compound max 10 µM, 7x7, partner max 1 µM) | -0.122 | 0.0046 | 0.0276 | -0.046 | 0.0732 | 0.0867 | -0.0429 | 0.0189 | 0.0358 | -0.0463 | 0.0814 | -0.0148 | -0.051 | 0.0173 | -0.0087 | 0.0052 | 0.0081 | -0.0159 | -0.004 | -0.0535 |
| Cc1c2c(nn1C)CSCc1cc(n(C)n1)CSc1cc(c3ccccc3c1)OCCCc1c(C(=O)O)n(C)c3c-2c(Cl)ccc13 [AZD5991] + CN(C)CCCOc1ccc(-c2ccc3ncc4c(c3c2)n(C2CCOCC2)c(=O)n4C)cn1 [AZD0156] (first compound max 1 µM, 7x7, partner max 1 µM) | 0.0068 | 0.0319 | 0.0146 | -0.0062 | 0.0241 | 0.0051 | -0.0246 | 0.0106 | -0.0314 | -0.118 | 0.0103 | -0.0091 | 0.0231 | -0.0104 | 0.0063 | -0.0227 | -0.0889 | -0.0303 | -0.0536 | -0.0485 |
| COc1nnc2ccc(N3CCC(c4ccc(OCCN5CCN(C)C(=O)[C@H]5C)cc4)CC3)nn12 [AZD5153] + CCN(CCO)CCCOc1ccc2c(Nc3cc(CC(=O)Nc4cccc(F)c4)[nH]n3)ncnc2c1 [AZD2811] (first compound max 1 µM, 7x7, partner max 1 µM) | -0.0181 | -0.0238 | -0.0241 | -0.0771 | 0.0224 | -0.0086 | -0.0689 | -0.0581 | -0.0951 | -0.0341 | -0.0282 | -0.0087 | -0.0644 | -0.0313 | 0.0499 | -0.0523 | -0.0549 | -0.0065 | -0.0837 | -0.0857 |
| Cc1c2c(nn1C)CSCc1cc(n(C)n1)CSc1cc(c3ccccc3c1)OCCCc1c(C(=O)O)n(C)c3c-2c(Cl)ccc13 [AZD5991] + C1CN(CCC1(C(=O)N[C@@H](CCO)C2=CC=C(C=C2)Cl)N)C3=NC=NC4=C3C=CN4 [Capivasertib] (first compound max 1 µM, 7x7, partner max 3 µM) | -0.0179 | 0.0269 | 0.007 | -0.0406 | 0.0504 | 0.0232 | 0.0298 | -0.0108 | 0.0051 | -0.0468 | -0.0015 | 0.05 | -0.028 | -0.0173 | 0.0204 | -0.0328 | -0.0042 | 0.0017 | 0.0124 | -0.0074 |
| CC(=O)c1c(C)c2cnc(Nc3ccc(N4CCNCC4)cn3)nc2n(C2CCCC2)c1=O [Palbociclib] + Cn1cnc2c(F)c(Nc3ccc(Br)cc3Cl)c(C(=O)NOCCO)cc21 [Selumetinib] (first compound max 10 µM, 7x7, partner max 10 µM) | 0.0157 | -0.0701 | -0.0326 | -0.0531 | -0.0193 | -0.0082 | 0.0297 | -0.0788 | 0 | -0.0208 | -0.0004 | -0.036 | 0.0042 | 0.0912 | -0.0322 | -0.02 | -0.0422 | 0.0583 | -0.0425 | -0.058 |
| Cn1cnc2c(F)c(Nc3ccc(Br)cc3Cl)c(C(=O)NOCCO)cc21 [Selumetinib] + CCN(CCO)CCCOc1ccc2c(Nc3cc(CC(=O)Nc4cccc(F)c4)[nH]n3)ncnc2c1 [AZD2811] (first compound max 10 µM, 7x7, partner max 1 µM) | -0.0381 | 0.0553 | -0.0077 | -0.0877 | 0.0145 | 0.0332 | 0.0385 | 0.016 | -0.0586 | 0.0253 | -0.0324 | -0.026 | -0.0346 | 0.0279 | -0.0083 | -0.0246 | -0.098 | -0.0108 | -0.0412 | -0.0933 |
| CN(C)CCCOc1ccc(-c2ccc3ncc4c(c3c2)n(C2CCOCC2)c(=O)n4C)cn1 [AZD0156] + C[C@@H]1COCCN1C2=NC(=NC(=C2)C3(CC3)[S@](=N)(=O)C)C4=C5C=CNC5=NC=C4 [AZD6738] (first compound max 1 µM, 7x7, partner max 10 µM) | 0.0164 | -0.0036 | -0.0233 | -0.0206 | 0.0266 | 0.042 | -0.0648 | -0.0386 | -0.0172 | -0.0166 | -0.0098 | -0.0229 | -0.0468 | 0.0282 | -0.0427 | -0.0451 | 0.0073 | -0.0108 | 0.0187 | -0.0507 |
| COc1nnc2ccc(N3CCC(c4ccc(OCCN5CCN(C)C(=O)[C@H]5C)cc4)CC3)nn12 [AZD5153] + CC1(C)CCC(CN2CCN(c3ccc(C(=O)NS(=O)(=O)c4ccc(NCC5CCOCC5)c([N+](=O)[O-])c4)c(Oc4cnc5[nH]ccc5c4)c3)CC2)=C(c2ccc(Cl)cc2)C1 [Venetoclax] (first compound max 1 µM, 7x7, partner max 1 µM) | -0.0818 | -0.095 | -0.0181 | -0.0464 | -0.0381 | -0.068 | -0.0804 | -0.0815 | -0.0165 | 0.0517 | 0.0066 | -0.0381 | -0.0515 | -0.0315 | 0.0191 | -0.0775 | -0.118 | -0.0792 | -0.0699 | -0.0581 |
| CCN(CCO)CCCOc1ccc2c(Nc3cc(CC(=O)Nc4cccc(F)c4)[nH]n3)ncnc2c1 [AZD2811] + C=CCn1c(=O)c2cnc(Nc3ccc(N4CCN(C)CC4)cc3)nc2n1-c1cccc(C(C)(C)O)n1 [AZD1775] (first compound max 1 µM, partner max 1 µM) | -0.0325 | 0.0123 | -0.0116 | -0.062 | -0.0443 | -0.0026 | 0.0495 | -0.0331 | -0.0196 | 0.0507 | 0.0025 | 0.0236 | -0.0356 | -0.0202 | -0.0183 | 0.0006 | -0.0132 | 0.0108 | -0.0155 | -0.0501 |
| C[C@@H]1COCCN1c1cc(C2([S@](C)(=N)=O)CC2)nc(-c2ccnc3[nH]ccc23)n1 [AZD6738] + O=C(c1cc(Cc2n[nH]c(=O)c3ccccc23)ccc1F)N1CCN(C(=O)C2CC2)CC1 [Olaparib] (first compound max 10 µM, 7x7, partner max 10 µM) | -0.0163 | 0.0414 | 0.0008 | -0.0375 | -0.0078 | 0.0174 | 0.003 | -0.0665 | -0.0087 | -0.0358 | 0.0157 | -0.0764 | 0.0056 | 0.0629 | -0.0333 | -0.0384 | -0.03 | 0.0223 | -0.0225 | -0.0202 |
